Values quoted from earlier work, collected in US20230078230A1, “METHODS FOR THE PRODUCTION OF COMMITTED CARDIAC PROGENITOR CELLS” (FUJIFILM Cellular Dynamics, Inc., priority 2021, published 2023).

Columns and labels:
[1] = tested on: ROCK1/ROCK2; details: ROCK1/ROCK2, competing with ATP
[2] = tested on: pluripotent stem cell-derived cardiomyocytes

SMILES	IC50 [1] [nM]	effect on contractile activity [2]
C[C@@H](N)[C@H]1CC[C@H](C(=O)Nc2ccncc2)CC1 [Y-27632]	800	–
COc1ccc([C@@H]2Sc3ccccc3N(CCN(C)C)C(=O)[C@@H]2OC(C)=O)cc1 [diltiazem]	–	inhibits contractile activity in a dose-dependent manner
CC(C)NCC(O)c1ccc(O)c(O)c1 (stereo not shown) [isoprenaline]	–	positive chronotropic effect
CNC[C@H](O)c1cccc(O)c1 [phenylephrine]	–	positive chronotropic effect
